{"source": "paper PMC11173647", "about": "“Anti-Inflammatory Activity of Pyrazolo[1,5-a]quinazolines” (Molecules, 2024)", "origin": "cited, not measured here", "design_in_all_cases": "method as in PMID 32696514", "key": {"[1]": {"tested_on": "carrageenan-induced paw edema", "settings": "carrageenan-induced paw edema model, 10 mg/kg; cited from earlier work"}, "cyclooxygenase 2 (COX-2)": {"tested_on": "cyclooxygenase 2 (COX-2)", "settings": "cited from earlier work"}, "5-lipoxygenase (5-LOX)": {"target": "5-lipoxygenase (5-LOX)", "settings": "cited from earlier work"}, "[2]": {"tested_on": "gastric ulcerogenic effects", "settings": "in vivo; cited from earlier work"}}, "note": "pIC50: −log10 of the molar value."}
{"molecule": "COc1cc(/C=c2/c(=O)[nH]n3c(=O)c4ccccc4nc23)cc(OC)c1OC", "note": "[A]", "values": [{"measurement": "reduction of edema", "setting": "[1]", "value": 39, "unit": "%"}, {"measurement": "selectivity toward COX-2 versus COX-1", "setting": "cyclooxygenase 2 (COX-2); COX-2 versus COX-1", "value": "about 14 fold"}, {"measurement": "pIC50", "setting": "cyclooxygenase 2 (COX-2)", "value": 7.33}, {"measurement": "pIC50", "setting": "5-lipoxygenase (5-LOX)", "value": 5.64}, {"measurement": "gastric ulcerogenic effects", "setting": "[2]", "value": "did not exhibit gastric ulcerogenic effects"}]}
